Test results: ChEMBL document CHEMBL4800731, “Data for DCP probe JNJ-65355394” (2021)

How the values were obtained:
Conditions in all cases: Compound concentration 10.0 uM
[1] = target: T1, 5-hydroxytryptamine receptor 1A (Homo sapiens) (UniProt P08908)
T1 sequence (whole entry): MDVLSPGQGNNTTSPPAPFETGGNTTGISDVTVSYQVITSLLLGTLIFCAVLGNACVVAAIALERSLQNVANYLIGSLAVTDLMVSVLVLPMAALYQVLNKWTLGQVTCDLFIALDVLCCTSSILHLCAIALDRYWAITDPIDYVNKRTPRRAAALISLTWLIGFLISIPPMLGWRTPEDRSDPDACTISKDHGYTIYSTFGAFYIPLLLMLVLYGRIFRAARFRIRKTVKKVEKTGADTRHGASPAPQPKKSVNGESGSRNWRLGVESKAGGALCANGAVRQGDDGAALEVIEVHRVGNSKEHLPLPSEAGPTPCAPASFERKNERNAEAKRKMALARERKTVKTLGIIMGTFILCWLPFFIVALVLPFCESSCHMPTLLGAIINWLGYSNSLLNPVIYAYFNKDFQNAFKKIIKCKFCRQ

[2] = target: 5-hydroxytryptamine receptor 2A (Homo sapiens) (UniProt P28223)
Sequence of 5-hydroxytryptamine receptor 2A (Homo sapiens) (P28223 whole entry): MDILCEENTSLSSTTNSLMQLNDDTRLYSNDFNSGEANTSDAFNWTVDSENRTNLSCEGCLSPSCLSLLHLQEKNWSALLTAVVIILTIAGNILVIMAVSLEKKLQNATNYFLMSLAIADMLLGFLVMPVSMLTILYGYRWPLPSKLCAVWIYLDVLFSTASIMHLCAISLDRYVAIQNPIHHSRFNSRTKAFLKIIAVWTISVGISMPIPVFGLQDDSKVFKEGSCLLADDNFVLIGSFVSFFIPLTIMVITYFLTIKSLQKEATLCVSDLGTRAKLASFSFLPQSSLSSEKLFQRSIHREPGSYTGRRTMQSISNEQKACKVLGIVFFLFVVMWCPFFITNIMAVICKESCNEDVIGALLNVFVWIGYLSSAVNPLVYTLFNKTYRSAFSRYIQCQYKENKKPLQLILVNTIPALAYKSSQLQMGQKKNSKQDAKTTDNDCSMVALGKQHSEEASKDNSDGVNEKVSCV

[3] = target: 5-hydroxytryptamine receptor 2C (Homo sapiens) (UniProt P28335)
Sequence of 5-hydroxytryptamine receptor 2C (Homo sapiens) (P28335 whole entry): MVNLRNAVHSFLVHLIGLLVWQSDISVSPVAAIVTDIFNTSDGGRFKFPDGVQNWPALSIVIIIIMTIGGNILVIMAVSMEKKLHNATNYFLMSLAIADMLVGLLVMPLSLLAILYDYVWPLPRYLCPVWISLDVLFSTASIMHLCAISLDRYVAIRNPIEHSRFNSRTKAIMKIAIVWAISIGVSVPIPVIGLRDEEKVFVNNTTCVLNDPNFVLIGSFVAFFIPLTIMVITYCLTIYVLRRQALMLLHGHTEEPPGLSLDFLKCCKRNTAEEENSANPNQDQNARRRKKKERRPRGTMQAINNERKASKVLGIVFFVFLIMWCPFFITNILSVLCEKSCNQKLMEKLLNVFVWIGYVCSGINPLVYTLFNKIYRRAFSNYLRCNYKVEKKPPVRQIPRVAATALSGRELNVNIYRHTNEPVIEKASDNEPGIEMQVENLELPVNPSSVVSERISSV

[4] = target: 5-hydroxytryptamine receptor 5A (Homo sapiens) (UniProt P47898)
Sequence of 5-hydroxytryptamine receptor 5A (Homo sapiens) (P47898 whole entry): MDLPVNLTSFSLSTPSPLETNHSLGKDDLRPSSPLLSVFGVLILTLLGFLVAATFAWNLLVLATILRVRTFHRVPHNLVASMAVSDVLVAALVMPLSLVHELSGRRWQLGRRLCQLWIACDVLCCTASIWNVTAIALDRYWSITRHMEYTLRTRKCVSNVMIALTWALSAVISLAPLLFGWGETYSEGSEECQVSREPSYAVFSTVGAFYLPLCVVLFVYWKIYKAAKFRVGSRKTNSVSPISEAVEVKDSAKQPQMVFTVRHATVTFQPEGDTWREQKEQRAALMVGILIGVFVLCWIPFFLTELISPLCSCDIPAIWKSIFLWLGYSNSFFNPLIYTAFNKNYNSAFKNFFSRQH

[5] = target: 5-hydroxytryptamine receptor 6 (Homo sapiens) (UniProt P50406)
Sequence of 5-hydroxytryptamine receptor 6 (Homo sapiens) (P50406 whole entry): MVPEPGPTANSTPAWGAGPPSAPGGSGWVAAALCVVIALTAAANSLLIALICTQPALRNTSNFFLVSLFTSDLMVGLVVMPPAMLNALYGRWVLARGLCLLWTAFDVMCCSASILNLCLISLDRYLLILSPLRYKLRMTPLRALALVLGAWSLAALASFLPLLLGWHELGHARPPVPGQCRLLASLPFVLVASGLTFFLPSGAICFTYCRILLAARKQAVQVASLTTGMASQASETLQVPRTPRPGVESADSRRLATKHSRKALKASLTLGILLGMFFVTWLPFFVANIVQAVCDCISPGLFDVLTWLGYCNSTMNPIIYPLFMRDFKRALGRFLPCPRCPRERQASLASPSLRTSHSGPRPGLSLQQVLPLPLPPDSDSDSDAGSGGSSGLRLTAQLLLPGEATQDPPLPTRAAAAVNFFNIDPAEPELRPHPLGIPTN

[6] = target: D(4) dopamine receptor (Homo sapiens) (UniProt P21917)
Sequence of D(4) dopamine receptor (Homo sapiens) (P21917 whole entry): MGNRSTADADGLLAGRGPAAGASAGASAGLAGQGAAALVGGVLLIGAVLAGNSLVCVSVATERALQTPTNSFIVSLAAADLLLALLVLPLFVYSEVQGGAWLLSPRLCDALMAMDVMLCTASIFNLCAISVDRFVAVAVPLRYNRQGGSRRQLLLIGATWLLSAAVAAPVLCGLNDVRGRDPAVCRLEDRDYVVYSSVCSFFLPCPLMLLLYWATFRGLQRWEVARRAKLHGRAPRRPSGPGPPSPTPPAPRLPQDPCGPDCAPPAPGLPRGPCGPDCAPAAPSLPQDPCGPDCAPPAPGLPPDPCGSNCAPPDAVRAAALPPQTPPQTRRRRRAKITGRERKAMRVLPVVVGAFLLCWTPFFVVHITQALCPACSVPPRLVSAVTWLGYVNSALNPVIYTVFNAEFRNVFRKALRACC

[7] = target: Sodium-dependent serotonin transporter (Homo sapiens, UniProt P31645)
Sequence of Sodium-dependent serotonin transporter (P31645 whole entry, looked up): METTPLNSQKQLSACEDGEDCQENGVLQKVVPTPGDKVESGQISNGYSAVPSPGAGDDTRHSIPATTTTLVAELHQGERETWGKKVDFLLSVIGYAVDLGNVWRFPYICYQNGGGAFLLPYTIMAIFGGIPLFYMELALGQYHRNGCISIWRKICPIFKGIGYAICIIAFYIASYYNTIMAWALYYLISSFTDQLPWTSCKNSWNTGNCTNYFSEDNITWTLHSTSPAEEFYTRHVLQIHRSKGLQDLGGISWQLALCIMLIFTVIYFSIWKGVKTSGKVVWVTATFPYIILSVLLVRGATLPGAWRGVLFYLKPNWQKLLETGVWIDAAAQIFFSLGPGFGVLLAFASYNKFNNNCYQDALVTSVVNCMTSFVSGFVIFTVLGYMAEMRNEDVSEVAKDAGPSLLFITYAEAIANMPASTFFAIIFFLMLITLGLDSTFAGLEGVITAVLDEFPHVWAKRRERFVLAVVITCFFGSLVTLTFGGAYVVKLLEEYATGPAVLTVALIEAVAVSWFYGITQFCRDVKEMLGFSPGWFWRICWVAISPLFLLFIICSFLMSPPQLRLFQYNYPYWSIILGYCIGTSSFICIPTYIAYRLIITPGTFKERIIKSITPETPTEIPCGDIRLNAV

[8] = target: Sodium-dependent dopamine transporter (Homo sapiens, UniProt Q01959)
[9] = target: GABA-A receptor; anion channel (Rattus norvegicus) (UniProt O09028+P15431+P18506+P18508+P19969+P20236+P23574+P23576+P28471+P28473+P30191+P62813+P63079+P63138+Q91ZM7+Q9ES14)
[10] = target: Histamine H3 receptor (Homo sapiens) (UniProt Q9Y5N1)
Sequence of Histamine H3 receptor (Homo sapiens) (Q9Y5N1 whole entry): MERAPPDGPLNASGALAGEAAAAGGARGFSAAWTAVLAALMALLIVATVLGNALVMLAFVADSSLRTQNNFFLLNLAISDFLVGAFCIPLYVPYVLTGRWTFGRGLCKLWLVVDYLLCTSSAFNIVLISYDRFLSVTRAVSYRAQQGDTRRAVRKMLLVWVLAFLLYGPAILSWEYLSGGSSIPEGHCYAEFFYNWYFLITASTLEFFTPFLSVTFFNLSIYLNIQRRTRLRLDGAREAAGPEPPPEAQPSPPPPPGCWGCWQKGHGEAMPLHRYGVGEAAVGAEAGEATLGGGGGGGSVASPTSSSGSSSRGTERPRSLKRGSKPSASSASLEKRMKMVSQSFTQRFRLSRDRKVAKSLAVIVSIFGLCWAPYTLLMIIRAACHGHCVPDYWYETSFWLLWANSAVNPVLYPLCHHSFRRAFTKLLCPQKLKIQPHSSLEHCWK

[11] = target: Alpha-1A adrenergic receptor (Homo sapiens) (UniProt P35348)
Sequence of Alpha-1A adrenergic receptor (Homo sapiens) (P35348 whole entry): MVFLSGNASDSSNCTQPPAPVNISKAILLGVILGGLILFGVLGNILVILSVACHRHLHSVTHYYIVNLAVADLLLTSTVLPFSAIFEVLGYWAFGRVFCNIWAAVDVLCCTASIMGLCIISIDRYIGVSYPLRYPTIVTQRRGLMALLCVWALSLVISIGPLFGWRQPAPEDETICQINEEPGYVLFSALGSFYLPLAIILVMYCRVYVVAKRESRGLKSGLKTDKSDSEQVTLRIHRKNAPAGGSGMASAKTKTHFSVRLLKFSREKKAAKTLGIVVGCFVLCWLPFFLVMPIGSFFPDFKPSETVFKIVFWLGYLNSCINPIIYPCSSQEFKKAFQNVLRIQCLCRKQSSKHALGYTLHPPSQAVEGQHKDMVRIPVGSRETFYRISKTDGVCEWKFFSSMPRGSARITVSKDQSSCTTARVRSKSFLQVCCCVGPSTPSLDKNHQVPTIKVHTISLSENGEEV

[12] = target: T2, Alpha-1B adrenergic receptor (Homo sapiens) (UniProt P35368)
T2 sequence (whole entry): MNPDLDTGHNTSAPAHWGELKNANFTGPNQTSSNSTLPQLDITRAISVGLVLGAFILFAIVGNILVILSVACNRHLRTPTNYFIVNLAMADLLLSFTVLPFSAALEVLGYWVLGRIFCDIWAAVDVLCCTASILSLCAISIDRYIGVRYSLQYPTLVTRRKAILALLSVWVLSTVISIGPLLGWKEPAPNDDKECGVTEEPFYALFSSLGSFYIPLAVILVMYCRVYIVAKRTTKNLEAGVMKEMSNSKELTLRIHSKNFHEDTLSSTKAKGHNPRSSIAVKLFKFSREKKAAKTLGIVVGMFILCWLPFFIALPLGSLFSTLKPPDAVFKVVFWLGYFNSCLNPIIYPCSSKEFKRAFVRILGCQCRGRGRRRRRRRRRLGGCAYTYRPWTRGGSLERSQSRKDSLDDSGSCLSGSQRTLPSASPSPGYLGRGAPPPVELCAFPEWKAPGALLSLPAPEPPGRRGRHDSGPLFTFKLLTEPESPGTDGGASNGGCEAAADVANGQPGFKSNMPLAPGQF

[13] = target: Alpha-2A adrenergic receptor (Homo sapiens) (UniProt P08913)
Sequence of Alpha-2A adrenergic receptor (Homo sapiens) (P08913 whole entry): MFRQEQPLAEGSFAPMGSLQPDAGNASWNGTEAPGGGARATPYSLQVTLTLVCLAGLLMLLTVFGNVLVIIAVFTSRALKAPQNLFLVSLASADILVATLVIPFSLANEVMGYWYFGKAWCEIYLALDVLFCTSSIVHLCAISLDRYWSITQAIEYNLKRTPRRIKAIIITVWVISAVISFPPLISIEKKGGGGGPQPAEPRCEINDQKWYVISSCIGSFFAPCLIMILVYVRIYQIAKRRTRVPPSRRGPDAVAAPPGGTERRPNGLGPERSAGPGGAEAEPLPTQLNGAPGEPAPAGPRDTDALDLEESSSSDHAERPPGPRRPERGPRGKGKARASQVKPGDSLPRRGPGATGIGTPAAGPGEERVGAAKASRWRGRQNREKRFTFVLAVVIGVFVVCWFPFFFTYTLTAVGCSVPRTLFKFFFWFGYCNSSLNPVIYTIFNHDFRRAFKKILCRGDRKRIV

[14] = target: Alpha-2B adrenergic receptor (Homo sapiens) (UniProt P18089)
Sequence of Alpha-2B adrenergic receptor (Homo sapiens) (P18089 whole entry): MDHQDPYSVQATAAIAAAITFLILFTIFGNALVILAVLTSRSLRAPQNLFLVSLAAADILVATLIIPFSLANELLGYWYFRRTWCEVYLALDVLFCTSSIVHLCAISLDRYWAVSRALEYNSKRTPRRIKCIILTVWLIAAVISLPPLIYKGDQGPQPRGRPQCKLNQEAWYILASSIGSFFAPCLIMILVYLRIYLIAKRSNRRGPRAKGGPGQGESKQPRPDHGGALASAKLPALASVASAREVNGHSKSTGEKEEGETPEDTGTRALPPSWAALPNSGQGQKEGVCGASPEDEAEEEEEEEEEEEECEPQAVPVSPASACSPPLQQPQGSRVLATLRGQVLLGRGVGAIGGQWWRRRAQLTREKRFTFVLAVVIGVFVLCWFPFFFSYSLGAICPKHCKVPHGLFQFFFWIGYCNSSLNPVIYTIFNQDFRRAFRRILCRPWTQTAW

[15] = target: Beta-1 adrenergic receptor (Homo sapiens) (UniProt P08588)
[16] = target: T3, Muscarinic acetylcholine receptor M1 (Homo sapiens) (UniProt P11229)
T3 sequence (whole entry): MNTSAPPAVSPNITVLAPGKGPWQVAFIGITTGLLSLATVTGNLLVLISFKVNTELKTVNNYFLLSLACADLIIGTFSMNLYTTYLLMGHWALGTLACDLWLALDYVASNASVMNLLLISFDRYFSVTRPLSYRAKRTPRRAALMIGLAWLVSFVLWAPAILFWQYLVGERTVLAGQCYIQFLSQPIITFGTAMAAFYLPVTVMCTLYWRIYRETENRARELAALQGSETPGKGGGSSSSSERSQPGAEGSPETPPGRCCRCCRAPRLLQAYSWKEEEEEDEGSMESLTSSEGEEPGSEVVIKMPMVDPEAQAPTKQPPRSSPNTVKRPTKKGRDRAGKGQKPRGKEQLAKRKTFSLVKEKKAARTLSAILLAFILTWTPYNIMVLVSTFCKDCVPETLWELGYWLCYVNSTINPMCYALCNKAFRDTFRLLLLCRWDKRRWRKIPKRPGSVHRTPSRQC

[17] = target: T4, Muscarinic acetylcholine receptor M2 (Homo sapiens) (UniProt P08172)
T4 sequence (whole entry): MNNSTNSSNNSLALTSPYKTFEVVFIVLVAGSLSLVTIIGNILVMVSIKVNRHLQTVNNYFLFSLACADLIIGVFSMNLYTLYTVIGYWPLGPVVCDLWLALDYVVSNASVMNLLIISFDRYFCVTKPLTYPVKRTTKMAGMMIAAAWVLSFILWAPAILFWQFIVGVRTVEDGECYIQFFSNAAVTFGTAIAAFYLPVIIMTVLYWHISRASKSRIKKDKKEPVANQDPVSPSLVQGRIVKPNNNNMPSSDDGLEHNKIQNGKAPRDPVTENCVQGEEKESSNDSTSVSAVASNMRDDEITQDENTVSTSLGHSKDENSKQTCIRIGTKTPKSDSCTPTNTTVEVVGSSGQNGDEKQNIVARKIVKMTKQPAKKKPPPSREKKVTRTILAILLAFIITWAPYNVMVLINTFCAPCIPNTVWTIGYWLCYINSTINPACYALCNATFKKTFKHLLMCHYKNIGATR

Rattus norvegicus = species on record: Rattus norvegicus
[18] = target: Alpha-1D adrenergic receptor (Homo sapiens) (UniProt P25100)
[19] = target: Sigma intracellular receptor 2 (Homo sapiens, UniProt Q5BJF2)
Sequence of Sigma intracellular receptor 2 (Q5BJF2 whole entry): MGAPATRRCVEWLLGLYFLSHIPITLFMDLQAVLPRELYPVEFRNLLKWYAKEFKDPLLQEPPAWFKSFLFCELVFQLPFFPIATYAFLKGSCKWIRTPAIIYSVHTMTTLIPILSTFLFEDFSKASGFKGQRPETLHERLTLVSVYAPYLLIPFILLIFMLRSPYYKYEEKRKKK

Compound	inhibition [1]	inhibition [2]	inhibition [3]	inhibition [4]	inhibition [5]	inhibition [6]	inhibition [7]	inhibition [8]	inhibition [9]	inhibition [10]	inhibition [11]	inhibition [12]	inhibition [13]	inhibition [14]	inhibition [15]	inhibition [16]	inhibition [17]	inhibition (Rattus norvegicus)	inhibition [18]	inhibition [19]
CC(=O)Nc1ncc(CN2CCC[C@H](Cc3cc(C)nc(C)c3)C2)s1 [JNJ-65355394]	22.2%	-2.94%	15.2%	18.7%	14.3%	3.53%	7.21%	13.4%	-8.39%	10.8%	2.36%	-5.2%	8.68%	44.8%	3.29%	6.18%	9.54%	5.69%	8.3%	19%
CC(=O)Nc1nc(CN2CCC[C@H](Cc3cc(C)nc(C)c3)C2)cs1 [JNJ-73924149]	12.3%	6.45%	16.3%	17.8%	25.6%	6.82%	52.3%	81.9%	43.6%	27.1%	-1.89%	-3.57%	31.7%	59.1%	4.41%	25.4%	8.65%	11.2%	7.45%	59.6%
